In patent publication US11458099B2, “Inhalable antimicrobial particles and methods of making the same” (The Penn State Research Foundation, priority 2017, dated 2022):
In brackets after ≈: the same amount, converted by molar mass. Ends that are not written are not given here.

Legend:
[1] = Cargo release from nanogels by dialysis into 37° C. PBS; type: physicochemical; conditions: from N:P 10 nanogel carrier
Procedure: Loaded BNCs in DI water were injected into 300 kDa MWCO dialysis tubing. The tubing was submerged in a 30× (by volume) bath of PBS. At predetermined time points, multiple samples (n≥3) were collected from multiple locations throughout the bath. These samples were pooled and release was characterized in the same method used for assessing initial loading. Before each measurement, volume was adjusted to that of the initial bath to ensure concentration consistency.
Next, physiologic release of the encapsulated cargo was assessed by loading each nanogel formulation into a dialysis cassette and suspending it in a release media of 37° C. PBS. The concentration of loaded drug or GFP liberated to the dialysis media was then monitored as a function of time via UV-Vis or fluorescence spectroscopy, respectively. […] The majority of encapsulated protein (>75%) was retained within the nanogel carrier for the first 24 hours, followed by a rapid release phase that occurred between 24 and 72 hours.

growing MTb = test: KKL-35 viability of growing MTb cultures, plating assay; type: cell-based, Mycobacterium tuberculosis; conditions: FIG. 5A
[2] = system: dormant persister cells (MTb); test: KKL-35 viability of non-replicating MTb, Wayne model; type: cell-based, Mycobacterium tuberculosis; conditions: 3 days, FIG. 5B
physchem = conditions: water
A. baumannii (−) = test: MIC of VAN, NGVAN, NG (broth dilution); type: cell-based; conditions: Acinetobacter baumannii, read-out: MIC of VAN
Procedure: (§1) 2× Dilutions of treatments in broth were plated into a U-bottom 96 well plate. Overnight cultures of Pseudomonas aeruginosa, Escherichia coli, Acinetobacter baumannii, Salmonella enterica and Staphylococcus aureus were incubated in cation adjusted Mueller-Hinton broth as advised by CLSI. Bacteria were diluted to an OD600 of 0.002 and plated in a 1:1 volume ratio with the treatments. These cultures were incubated overnight and MIC values were assessed by visual evaluation of growth inhibition when compared to untreated samples.

E. coli (−) = test: MIC of VAN, NGVAN, NG (broth dilution); type: cell-based; conditions: Escherichia coli, drug or equivalent concentration of drug loaded into nanogels
Procedure: as §1

P. aeruginosa (−) = test: MIC of VAN, NGVAN, NG (broth dilution); type: cell-based; conditions: Pseudomonas aeruginosa, read-out: MIC of VAN
Procedure: as §1

S. enterica (−) = test: MIC of VAN, NGVAN, NG (broth dilution); type: cell-based; conditions: Salmonella enterica, drug or equivalent concentration of drug loaded into nanogels
Procedure: as §1

S. aureus (+) = test: MIC of VAN, NGVAN, NG (broth dilution); type: cell-based, Staphylococcus aureus; conditions: S. aureus vs four gram-negative pathogens
Procedure: as §1

[3] = system: panel of gram-negative and gram-positive bacterial pathogens; test: Antibacterial activity against the whole panel; type: cell-based; conditions: four different gram-negative pathogens; highest concentration tested
Procedure: as §1
Next, the antibacterial activity of VAN-loaded nanogels were evaluated against a panel of gram-negative and gram-positive bacterial pathogens (Table 5). It is important to note that clinical use of VAN is generally excluded to gram-positive infections as most gram-negative pathogens are innately resistant to the drug. This is due to the thick outer membrane of gram-negative bacteria which prevents the large glycopeptide drug from diffusing into the cell wall and reaching its enzymatic target.

MS S. aureus = test: MIC of AMPs; type: cell-based; conditions: Gram +
P. aeruginosa = test: MIC of AMPs; type: cell-based; conditions: Gram −
A. baumannii = test: MIC of AMPs; type: cell-based; conditions: Gram −
S. enterica = test: MIC of AMPs; type: cell-based; conditions: Gram −
H. influenzae = test: MIC of AMPs; type: cell-based; conditions: Gram −
M. smegmatis [4] = test: MIC of AMPs; type: cell-based; conditions: Gram +/−
MR S. aureus = conditions: Gram +
B. anthrax = conditions: Gram +
M. tuberculosis [5] = conditions: Gram +/−
M. tuberculosis [6] = conditions: minimum concentration inhibiting 90% culture growth; cited from earlier work
M. smegmatis [7] = conditions: minimum concentration inhibiting 90% culture growth; cited from earlier work
[8] = system: THP-1 human macrophage control cell line; conditions: selectivity index at IC90, MTb over THP-1 human macrophage control cell line; cited from earlier work

Row | Molecule | MIC (MS S. aureus) | MIC (P. aeruginosa) | MIC (A. baumannii) | MIC (S. enterica) | MIC (H. influenzae) | MIC (M. smegmatis [4]) | MIC (MR S. aureus) | MIC (B. anthrax) | MIC (M. tuberculosis [5]) | IC90 (M. tuberculosis [6]) | IC90 (M. smegmatis [7]) | SI90 [8] | further results
1 | COc1cccc2c1C(=O)c1c(O)c3c(c(O)c1C2=O)C[C@@](O)(C(=O)CO)C[C@@H]3O[C@H]1C[C@H](N)[C@H](O)[C@H](C)O1 [DOX, Doxorubicin] | – | – | – | – | – | – | – | – | – | – | – | – | time to complete release [1]: 48 h; zero-order release rate [1]: ~4 %/hour
2 | O=C(Nc1nnc(-c2ccc(F)cc2)o1)c1ccc(Cl)cc1 [KKL-35, 4-chloro-N-(5-(4-fluorophenyl)-1,3,4-oxadiazol-2-yl)benzamide] | – | – | – | – | – | – | – | – | – | – | – | – | IC towards growing MTb (growing MTb): < 1.6 µg/mL; IC towards dormant persister cells [2]: < 1.6 µg/mL; IC towards human HeLa cells (human HeLa cells): > 500 µg/mL; solubility (physchem): 500 µg/mL (≈ 1570 µM)
3 | CN[C@H](CC(C)C)C(=O)N[C@H]1C(=O)N[C@@H](CC(N)=O)C(=O)N[C@H]2C(=O)N[C@H]3C(=O)N[C@H](C(=O)N[C@H](C(=O)O)c4cc(O)cc(O)c4-c4cc3ccc4O)[C@H](O)c3ccc(c(Cl)c3)Oc3cc2cc(c3O[C@@H]2O[C@H](CO)[C@@H](O)[C@H](O)[C@H]2O[C@H]2C[C@](C)(N)[C@H](O)[C@H](C)O2)Oc2ccc(cc2Cl)[C@H]1O [VAN, Vancomycin] | – | – | – | – | – | – | – | – | – | – | – | – | MIC (A. baumannii (−)): 144 µg/mL; MIC (E. coli (−)): 144 µg/mL; MIC (P. aeruginosa (−)): 144 µg/mL; MIC (S. enterica (−)): 144 µg/mL; times more effective in killing S. aureus than gram-negative pathogens (S. aureus (+)): > 30 times; concentration giving inhibition of bacterial growth [3]: 144 µg/mL; time to 90% drug release ([1]; first order kinetics): ≤ 4 h
4 | H-KRWHWWRRHWVVW-NH2 [SMAS-1] | >80 µM | 50 µM | 50 µM | 80 µM | 80 µM | 5 µM | >80 µM | >80 µM | 3 µM | – | – | – | –
5 | H-WKWLKKWIK-NH2 [Entry 1] | >80 µM | 10 µM | 25 µM | 40 µM | 80 µM | 20 µM | >80 µM | 10 µM | 20 µM | 1.1 µM | 1.9 µM | 21.3 | –
6 | ILRWKWRWWRWRR-NH2 [Entry 2, cationic antimycobacterial peptide, amidated C-terminus] | – | – | – | – | – | – | – | – | – | – | 2.4 µM | 21.3 | –
7 | KRWWKWWRR-NH2 [Entry 3] | 80 µM | 20 µM | 80 µM | 80 µM | 80 µM | 20 µM | 80 µM | 80 µM | 10 µM | 3.1 µM | 4.9 µM | 51.2 | –
8 | RRWWRWVVW-NH2 [Entry 4] | 20 µM | 80 µM | 10 µM | 80 µM | 40 µM | 20 µM | 20 µM | 20 µM | 20 µM | 5.6 µM | 11.4 µM | 32.0 | –
